Drawing on PMC6179046, “Discovery of novel 1,3-diaryltriazene sulfonamides as carbonic anhydrase I, II, VII, and IX inhibitors” (Journal of Enzyme Inhibition and Medicinal Chemistry, 2018), this text covers Ki for eight compounds.

Usually Ki stands for the equilibrium dissociation constant of an inhibitor or competing ligand from its target. Low values mean a stronger hold on the target, high ones a looser hold on the target.

Assay in all cases: stopped-flow CO2 hydrase assay
Holding throughout (format): biochemical

One test concerns the target T1, hCA I (Homo sapiens, UniProt P00915).
T1 construct: gene CA1; recombinant, obtained as reported earlier; cytosolic isoform
An excerpt:
stopped-flow CO2 hydrase assay on hCA I

The target in the next test is T2, hCA II (Homo sapiens, UniProt P00918).
T2 construct: gene CA2; recombinant, obtained as reported earlier; cytosolic isoform
From the text:
stopped-flow CO2 hydrase assay on hCA II

The target in a further test is T3, hCA VII (Homo sapiens, UniProt P43166).
T3 construct: gene CA7; recombinant, obtained as reported earlier; cytosolic isoform
T3 sequence (P43166 whole entry, canonical isoform): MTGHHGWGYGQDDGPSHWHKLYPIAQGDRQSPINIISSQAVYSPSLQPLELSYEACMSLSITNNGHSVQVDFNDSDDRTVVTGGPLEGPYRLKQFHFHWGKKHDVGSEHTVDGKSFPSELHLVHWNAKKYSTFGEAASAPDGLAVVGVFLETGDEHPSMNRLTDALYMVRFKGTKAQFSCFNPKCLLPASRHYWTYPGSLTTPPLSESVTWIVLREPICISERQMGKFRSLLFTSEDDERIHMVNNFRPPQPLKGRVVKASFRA
From the text:
stopped-flow CO2 hydrase assay on hCA VII

In another test the target is T4, hCA IX (Homo sapiens, UniProt Q16790).
T4 construct: gene CA9; recombinant, obtained as reported earlier
An excerpt: stopped-flow CO2 hydrase assay on hCA IX

T1 sequence (P00915 2-261): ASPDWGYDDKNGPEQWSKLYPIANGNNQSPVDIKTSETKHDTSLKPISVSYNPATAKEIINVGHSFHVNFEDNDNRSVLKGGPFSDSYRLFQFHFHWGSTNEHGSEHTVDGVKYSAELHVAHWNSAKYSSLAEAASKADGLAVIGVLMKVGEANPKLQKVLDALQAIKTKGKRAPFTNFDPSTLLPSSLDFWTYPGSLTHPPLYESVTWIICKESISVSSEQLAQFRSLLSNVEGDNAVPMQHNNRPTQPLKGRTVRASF

Consider `NS(=O)(=O)c1cccc(/N=N/Nc2ccc(F)cc2)c1` [4a, 3–(3-(4-fluorophenyl)triaz-1-en-1-yl) benzenesulfonamide], for which the inhibitory constant (Ki) at hCA I was 365 ± 15 nM; on hCA II it was 858 ± 43 nM; on hCA VII, 9480 ± 348 nM; at hCA IX it was 8050 ± 126 nM.
Turning to `NS(=O)(=O)c1cccc(N/N=N/c2ccc(C(=O)O)cc2)c1` [4b, 4–(3-(3-sulfamoylphenyl)triaz-2-en-1-yl) benzoic acide], the Ki on hCA I worked out at 92.3 ± 7.1 nM; at hCA II it was 68.7 ± 5.1 nM; on hCA VII, 967 ± 54 nM; at hCA IX it was 835 ± 47 nM.
Regarding `N#Cc1ccc(NN=Nc2cccc(S(N)(=O)=O)c2)cc1` [4c, 3–(3-(4-cyanophenyl)triaz-1-en-1-yl) benzenesulfonamide], the Ki at hCA I amounted to 501 ± 31 nM; on hCA II, 605 ± 34 nM; on hCA VII, 7900 ± 456 nM; at hCA IX it was 8960 ± 348 nM.
With `CCCCOc1ccc(NN=Nc2cccc(S(N)(=O)=O)c2)cc1` [4d, 3–(3-(4-butoxyphenyl)triaz-1-en-1-yl) benzenesulfonamide], the inhibition constant Ki was 618 ± 40 nM at hCA I, 519 ± 39 nM on hCA II, 5870 ± 314 nM on hCA VII and 7430 ± 216 nM on hCA IX.
In the case of `COc1ccc(/N=N/Nc2cccc(S(N)(=O)=O)c2)cc1` [4e, 3–(3-(4-methoxyphenyl)triaz-1-en-1-yl) benzenesulfonamide], the Ki stood at 416 ± 32 nM at hCA I, 877 ± 62 nM at hCA II, 5760 ± 324 nM on hCA VII and 7230 ± 159 nM on hCA IX.
Take `Cc1cc(C)cc(NN=Nc2cccc(S(N)(=O)=O)c2)c1` [4f, 3–(3-(3,5-dimethylphenyl)triaz-1-en-1-yl)benzenesulfonamide]: the Ki turned out to be 277 ± 18 nM on hCA I, 4.3 ± 0.2 nM on hCA II, 15.6 ± 0.9 nM at hCA VII and 50.8 ± 3.6 nM on hCA IX.
`COc1ccc(/N=N/Nc2cccc(S(N)(=O)=O)c2)cc1OC` [4g, 3–(3-(3,4-dimethoxyphenyl)triaz-1-en-1-yl)benzenesulfonamide]: the Ki was 3850 ± 179 nM at hCA I, 6460 ± 310 nM at hCA II, 2560 ± 129 nM at hCA VII and 84.9 ± 4.5 nM at hCA IX.
For `NS(=O)(=O)c1cccc(N=NNc2ccc(Cl)c(Cl)c2)c1` [4h, 3–(3-(3,4-dichlorophenyl)triaz-1-en-1-yl)benzenesulfonamide], in that order: 8370 ± 601 nM, 9190 ± 504 nM, 7830 ± 418 nM and 9270 ± 451 nM.
